Experimental data taken from ChEMBL document CHEMBL5214882, “Targeting Atg4B for cancer therapy: Chemical mediators” (Eur J Med Chem, 2021).

Key:
Cysteine protease ATG4B = biological target: T1, Cysteine protease ATG4B (Homo sapiens, UniProt Q9Y4P1); assay: Inhibition of ATG4B (unknown origin) using proLC3B as substrate by FRET-LC3 assay
T1 sequence (Q9Y4P1 whole entry): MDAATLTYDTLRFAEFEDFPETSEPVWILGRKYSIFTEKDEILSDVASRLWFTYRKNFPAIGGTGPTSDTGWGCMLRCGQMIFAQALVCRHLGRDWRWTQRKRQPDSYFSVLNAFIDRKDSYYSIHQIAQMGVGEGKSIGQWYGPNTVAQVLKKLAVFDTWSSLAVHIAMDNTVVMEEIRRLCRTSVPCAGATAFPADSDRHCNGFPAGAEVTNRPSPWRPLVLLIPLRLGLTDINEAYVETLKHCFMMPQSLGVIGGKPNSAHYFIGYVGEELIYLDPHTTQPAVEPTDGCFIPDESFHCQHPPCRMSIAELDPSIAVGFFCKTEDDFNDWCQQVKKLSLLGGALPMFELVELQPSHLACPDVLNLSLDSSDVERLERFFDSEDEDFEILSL

HCT-116 = assay: Antitumor activity against human HCT-116 cells […] in mouse assessed as tumor growth inhibition at 50 mg/kg,sc administered for 5 weeks by 3 times a week; format: functional; details: HCT-116, 840 h

Compound	IC50 (Cysteine protease ATG4B) [µM]	inhibition in vivo at 50 mg/kg (HCT-116) [%]
O=C(N[C@@H](Cc1ccccc1)C(=O)CCl)OCc1ccccc1	3.3	–
COc1ccc(Nc2cc(C)nc(Nc3ccc(-c4cc5ccccc5o4)cc3)n2)cc1	–	75
Cc1cc(O)c2c(=O)c3c(O)cc(O)c4c5c(O)cc(O)c6c(=O)c7c(O)cc(C)c8c1c2c(c34)c(c78)c65 [HYPERICIN]	8.9	–
